In series [1] the test system is Hartley guinea pigs. Conditions: plasma, atorvastatin 50 mg/kg alone, orally once a day 7 days, average ± standard error (N = 12).
Protocol: On the morning of the following day after the 7th administration, blood was collected, and the concentrations of the alanine aminotransferase and the aspartate aminotransferase, which are the markers of hepatic toxicity, in plasma were measured.
Series [2] has as its system Hartley guinea pigs. The series can be described thus: Influence of Compound X and atorvastatin on liver pathological change (Example 4). The format is in vivo, guinea pig. The conditions noted are these: for Total cholesterol: guinea pigs on 0.05% cholesterol/10% corn oil diet, 30 mg/kg alone, orally once a day 14 days, average ± standard error (N = 12). The method, then:
Furthermore, the liver was removed and pathological evaluation was conducted.

The test system of series [3] is Hartley guinea pigs. Description: Lowering effect on plasma cholesterol by use in combination of Compound X and atorvastatin (Example 2). Format: in vivo, guinea pig. The conditions noted are these: guinea pigs on 0.05% cholesterol/10% corn oil diet, orally once a day 14 days, average ± standard error (N = 12).
Series [4] concerns Hartley guinea pigs. The series can be described thus: Influence of Compound X and cerivastatin on change of muscle-deviated enzymes (Example 6). Format: in vivo, guinea pig. The conditions noted are these: for increases in the creatinine phosphokinase and myoglobin in plasma: cerivastatin 1 mg/kg alone or with Compound X 30 mg/kg.
For the next series, the system named is Wistar Fatty rats. Description: Lowering effect on plasma triglyceride by use in combination of Compound X and atorvastatin (Example 1). Format: in vivo, rat. Conditions: 30 mg/kg alone, orally once a day for 8 days, overnight fasting, average ± standard error (N = 6).
Series [5] concerns Hartley guinea pigs. The series can be described thus: Lowering effects on plasma cholesterol by use in combination of Compound X and simvastatin (Example 3). The conditions noted are these: guinea pigs on 0.05% cholesterol/10% corn oil diet, orally once a day 14 days, average ± standard error (N = 12). Format: in vivo, guinea pig.
In series [6] the test system is Hartley guinea pigs. The series can be described thus: Lowering effect on plasma cholesterol by triple combination of Compound X, simvastatin and ezetimibe (Example 7). The format is in vivo, guinea pig. The conditions noted are these: guinea pigs on 0.05% cholesterol/10% corn oil diet, Compound X 30 mg/kg alone, orally once a day 14 days; average ± standard error (N = 6).

[7] abbreviates: plasma, cerivastatin 1 mg/kg alone, orally once a day 14 days, average ± standard error (N = 16).

With `CC(C)c1c(C(=O)Nc2ccccc2)c(-c2ccccc2)c(-c2ccc(F)cc2)n1CC[C@@H](O)C[C@@H](O)CC(=O)O` [Atorvastatin, atorvastatin], in the series with Hartley guinea pigs [1], the Alanine aminotransferase turned out to be 48.9 ± 9.7 I.U./L. This molecule also had an Aspartate aminotransferase with Hartley guinea pigs [1] of 169.0 ± 39.1 I.U./L. This molecule also showed a Total cholesterol with Hartley guinea pigs [2] of 32.9 ± 1.5 mg/dL. The values for the Total cholesterol level with Hartley guinea pigs [3] (3 mg/kg alone), in the series with Hartley guinea pigs [3] (10 mg/kg alone) and with Hartley guinea pigs [3] (30 mg/kg alone) were 46.1 ± 3.3 mg/dL, 37.4 ± 4.1 mg/dL and 33.5 ± 2.8 mg/dL, respectively.
As for `COCc1c(C(C)C)nc(C(C)C)c(/C=C/[C@@H](O)C[C@@H](O)CC(=O)O)c1-c1ccc(F)cc1` [Cerivastatin, cerivastatin], in the series on Hartley guinea pigs [4] (14 days), the “increases in the creatinine phosphokinase and myoglobin in plasma” value is “Significant increases”. The TC with Hartley guinea pigs [4] (cerivastatin 1 mg/kg alone, orally once a day 14 days, average ± standard error (N = 16)) stood at 13.2 ± 0.8 mg/dL. Also, in the series with Hartley guinea pigs [4] (setting [7]), the CK (creatinine phosphokinase) is 4070 ± 800 U/L and the “Mb (myoglobin)” value is on record as 25.7 ± 2.6 ng/mL.
With `COc1cccc([C@H]2O[C@H](CC(=O)N3CCC(CC(=O)O)CC3)C(=O)N(CC(C)(C)COC(C)=O)c3ccc(Cl)cc32)c1OC` [Compound X, N-[[(3R,5S)-1-(3-acetoxy-2,2-dimethylpropyl)-7-chloro-5-(2,3-dimethoxyphenyl)-2-oxo-1,2,3,5-tetrahydro-4,1-benzoxazepin-3-yl]acetyl]piperidine-4-acetic acid], the Plasma triglyceride value in the series on Wistar Fatty rats was 376.5 ± 22.0 mg/dL. In the series on Hartley guinea pigs [2], this molecule gave a Total cholesterol of 40.1 ± 3.1 mg/dL. In addition, in the series with Hartley guinea pigs [2] (guinea pigs, each drug 30 mg/kg, alone or in combination, 14 days), the “Image of the liver cell necrosis” value is given as “not recognized”. In addition, the Total cholesterol level with Hartley guinea pigs [5] (30 mg/kg alone) turned out to be 40.2 ± 4.7 mg/dL; with Hartley guinea pigs [6] it was 43.5 ± 4.1 mg/dL; with Hartley guinea pigs [3] (30 mg/kg alone) it was 44.4 ± 4.1 mg/dL. For the same molecule, the cholesterol-lowering effect entry in the series with Hartley guinea pigs [4] (Compound X 30 mg/kg added to cerivastatin 1 mg/kg, 14 days) was “slightly increasing”. Also, in the series on Hartley guinea pigs [4] (14 days), the “increases in the creatinine phosphokinase and myoglobin in plasma” value is “significantly ameliorated the increases”.
As for `CCC(C)(C)C(=O)O[C@H]1C[C@@H](C)C=C2C=C[C@H](C)[C@H](CC[C@@H]3C[C@@H](O)CC(=O)O3)[C@H]21` [Simvastatin, simvastatin], the Total cholesterol level in the series on Hartley guinea pigs [5] (10 mg/kg alone) amounted to 41.0 ± 3.6 mg/dL; in the series on Hartley guinea pigs [5] (30 mg/kg alone), 43.4 ± 2.2 mg/dL; with Hartley guinea pigs [5] (100 mg/kg alone), 31.7 ± 2.6 mg/dL.
